From patent publication US8481576B2 (Abbott GmbH & Co. KG, priority 2004, dated 2013)
Where a name gives a salt, the structure may show the parent alone.

What follows are compounds tested against T1, h5-HT5A receptor (Homo sapiens, UniProt P47898) (assay: [3H]5-CT binding assay h5-HT5A). Settings: membranes from HEK293 cells expressing h5-HT5A, 2.5 nM [3H]5-CT; read-out: Binding affinity 5-HT5A (Ki).
T1 construct: expressed in transfected cells; host or cells: HEK293
Procedure, shortened: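 Membranes from HEK293 cells stably expressing h5-HT5A incubated with 2.5 nM [3H]5-CT and compound in 100 mM Tris-HCl pH 7.7, 1 mM EDTA, 75 min at 30° C. Nonspecific binding with 10 μM methiothepine; filtration and scintillation counting give Ki or IC50.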

T1 sequence (P47898 whole entry): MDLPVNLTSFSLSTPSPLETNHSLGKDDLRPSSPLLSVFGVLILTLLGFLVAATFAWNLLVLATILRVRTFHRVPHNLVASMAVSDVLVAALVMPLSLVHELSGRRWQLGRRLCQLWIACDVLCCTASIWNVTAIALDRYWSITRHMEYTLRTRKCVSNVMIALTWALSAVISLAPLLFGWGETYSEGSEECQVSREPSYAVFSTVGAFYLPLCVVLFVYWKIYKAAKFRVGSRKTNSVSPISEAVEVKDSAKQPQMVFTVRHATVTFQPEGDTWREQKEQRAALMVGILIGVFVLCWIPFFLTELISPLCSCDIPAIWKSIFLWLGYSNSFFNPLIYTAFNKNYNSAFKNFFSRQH

| Structure (SMILES) | Ki |
| --- | --- |
| COc1cccc(OC)c1CNC(=N)Nc1ccn(C)n1 [Example 215, N-(2,6-dimethoxybenzyl)-N′-(1-methyl-1H-pyrazole-3-yl)guanidine] | < 50 nM |
| COc1cccc(OC)c1CNC(=N)Nc1nc(Cc2ccc(F)cc2)cs1 [Example 143, N-(2,6-dimethoxybenzyl)-N′-[4-(4-fluorobenzyl)-1,3-thiazole-2-yl]guanidine] | < 50 nM |
| COc1ccccc1C(=O)NC(=N)Nc1nccs1 [Example 20, N-[Imino(1,3-thiazole-2-ylamino)methyl]-2-methoxybenzamide] | > 500 nM |
| COc1cccc(OC)c1CNC(=N)Nc1nc(C)co1 [Example 190, N-(2,6-dimethoxybenzyl)-N′-(4-methyl-1,3-oxazole-2-yl)guanidine acetate] | < 50 nM |
| COc1cccc(OC)c1CNC(=N)Nc1nc(N2CCOCC2)cs1 [Example 167, 4-[2-{[[(2,6-dimethoxybenzyl)amino](imino)methyl]amino}-1,3-thiazole-4(5H)-yliden]morpholine-4-ium chloride] | 50 to 500 nM |
| COc1ccccc1CNC(=N)Nc1cc(C(C)(C)C)[nH]n1 [Example 200, N-(5-tert-butyl-1H-pyrazole-3-yl)-N′-(2-methoxy-benzyl)-guanidine] | 50 to 500 nM |
| COc1cccc(OC)c1CNC(=N)Nc1nc(-c2ccccc2)cs1 [Example 2, N-(2,6-dimethoxybenzyl)-N′-(4-phenyl-1,3-thiazole-2-yl)guanidine] | < 50 nM |
| COc1cccc(OC)c1CNC(=N)Nc1nc(-c2c(Cl)cccc2Cl)cs1 [Example 119, N-[4-(2,6-dichlorophenyl)-1,3-thiazole-2-yl]-N′-(2,6-dimethoxybenzyl)guanidine] | < 50 nM |
| COc1cccc(Cl)c1CNC(=N)Nc1nc(-c2ccc(F)cc2)c[nH]1 [Example 195, N-(2-chlor-6-methoxybenzyl)-N′-[4-(4-fluorphenyl)-1H-imidazole-2-yl]guanidine acetate] | < 50 nM |
| COc1ccccc1CNC(=N)Nc1nc(-c2cccnc2)cs1 [Example 48, N-(2-methoxybenzyl)-N′-(4-pyridine-3-yl-1,3-thiazole-2-yl)guanidine] | 50 to 500 nM |

More lines, now with the values ahead:

| Ki | Structure (SMILES) |
| --- | --- |
| < 50 nM | COc1cccc(OC)c1CNC(=N)Nc1nc(C2CCCN2Cc2ccccc2)cs1 (stereo not drawn) [Example 151, N-[4-(1-benzylpyrrolidine-2-yl)-1,3-thiazole-2-yl]-N′-(2,6-dimethoxybenzyl)guanidine] |
| < 50 nM | COc1cccc(OC)c1CNC(=N)Nc1nc(-c2csc3ccccc23)cs1 [Example 96, N-[4-(1-benzothiene-3-yl)-1,3-thiazole-2-yl]-N′-(2,6-dimethoxybenzyl)guanidine hydrobromide] |
| < 50 nM | COc1cccc(OC)c1CNC(=N)Nc1nc(-c2ccc(OC(F)(F)F)cc2)cs1 [Example 64, N-(2,6-dimethoxybenzyl)-N′-{4-[4-(trifluoromethoxy)phenyl]-1,3-thiazole-2-yl}guanidine hydrobromide] |
| < 50 nM | COc1cccc(OC)c1CNC(=N)Nc1nc(-c2ccc(Cl)s2)cs1 [Example 77, N-[4-(5-chloro-2-thienyl)-1,3-thiazole-2-yl]-N′-(2,6-dimethoxybenzyl)guanidine hydrobromide] |
| > 500 nM | COc1ccccc1CNC(=N)Nc1nnc[nH]1 [Example 184, N-(2-methoxybenzyl)-N′-4H-1,2,4-triazole-3-ylguanidine acetate] |
| 50 to 500 nM | COc1cccc(OC)c1CNC(=N)Nc1nc(-c2ccc(C(F)(F)F)cc2)cs1 [Example 107, N-(2,6-dimethoxybenzyl)-N′-{4-[4-(trifluoromethyl)phenyl]-1,3-thiazole-2-yl}guanidine] |
| > 500 nM | COc1ccccc1CNC(=N)Nc1nc(-c2ccc(Cl)cc2)cs1 [Example 35, N-[4-(4-chlorophenyl)-1,3-thiazole-2-yl]-N′-(2-methoxybenzyl)guanidine] |
| < 50 nM | COc1ccccc1CNC(=N)Nc1cc(-c2ccccc2)[nH]n1 [Example 201, N-(2-methoxybenzyl)-N′-(5-phenyl-1H-pyrazole-3-yl)guanidine] |
